Measured values taken from ChEMBL document CHEMBL1201862, “PubChem BioAssay data set” (2004).
The source made the active and inactive calls.

Tests used:
[1] = Luminescence Cell-Based Dose Response HTS to Identify Activators of Luciferase Translation or Activity in H4 […] Cells. [Related pubchem assays: 1829 (Project Summary), 1814 (Primary HTS)]; format: functional
[2] = Luminescence Cell-Based Dose Confirmation HTS to Identify Activators of 5'UTR Stem-Loop Driven Alpha-Synuclein mRNA Translation in H4 Neuroglioblastoma Cells. [Related pubchem assays: 1829 (Project Summary), 1814 (Primary HTS)]; format: functional
[3] = biological target: Paired box protein Pax-8 (Homo sapiens, UniProt Q06710); test: PAX8 transcriptional activity inhibition in RMG-I – RMG-I cells, luciferase, cherry-pick, dose response (AID 687027); format: functional, cell-based;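 note: luciferase reporter driven by Pax8 target thyroperoxidase promoter measured by SteadyGlo luminescence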
Sequence of Paired box protein Pax-8 (Q06710 whole entry): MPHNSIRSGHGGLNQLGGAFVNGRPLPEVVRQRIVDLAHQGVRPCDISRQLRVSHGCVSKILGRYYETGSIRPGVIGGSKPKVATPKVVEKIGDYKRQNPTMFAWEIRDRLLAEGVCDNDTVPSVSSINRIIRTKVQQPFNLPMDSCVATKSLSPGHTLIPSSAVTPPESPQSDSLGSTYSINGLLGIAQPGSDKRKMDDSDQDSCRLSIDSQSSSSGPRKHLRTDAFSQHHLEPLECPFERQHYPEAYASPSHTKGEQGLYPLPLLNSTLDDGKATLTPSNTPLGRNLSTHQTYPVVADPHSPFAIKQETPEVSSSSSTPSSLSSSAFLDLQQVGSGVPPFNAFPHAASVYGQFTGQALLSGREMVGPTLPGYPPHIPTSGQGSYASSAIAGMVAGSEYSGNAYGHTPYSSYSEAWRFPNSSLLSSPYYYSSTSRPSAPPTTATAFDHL

[4] = Luminescence Cell-Based Dose Response HTS to Identify Inhibitors of 5'UTR Stem-Loop Driven Prion Protein mRNA Translation in H4 Neuroglioblastoma Cells. [Related pubchem assays: 1827 (Project Summary), 1813 (Primary HTS)]; format: functional
[5] = alpha-synuclein stem-loop luciferase translation blockers – H4 neuroglioma cells, luminescence, confirmation (AID 1988); format: functional, cell-based
[6] = luciferase reporter signal suppression in cells – H4 neuroglioma cells, luminescence, dose response (AID 1990); format: functional, cell-based
[7] = test system: H4; test: Luminescence Cell-Based Dose Response HTS to Identify Activators of 5'UTR Stem-Loop Driven Prion Protein mRNA Translation in H4 Neuroglioblastoma Cells. [Related pubchem assays: 1829 (Project Summary), 1814 (Primary HTS)]; format: functional; details: Homo sapiens
[8] = biological target: T1, Heat shock factor protein 1 (Mus musculus, UniProt P38532); test: decrease of HSF1-responsive luciferase luminescence – cell-based, NIH3T3, dose retest, confirmation (AID 2382); format: functional;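 note: NIH3T3 fibroblasts with HSF1-driven luciferase reporter stressed by proteasome inhibitor MG132; luminescence from HSF1-driven luciferase expression after 8 hours of MG132 stress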
T1 sequence (P38532 whole entry): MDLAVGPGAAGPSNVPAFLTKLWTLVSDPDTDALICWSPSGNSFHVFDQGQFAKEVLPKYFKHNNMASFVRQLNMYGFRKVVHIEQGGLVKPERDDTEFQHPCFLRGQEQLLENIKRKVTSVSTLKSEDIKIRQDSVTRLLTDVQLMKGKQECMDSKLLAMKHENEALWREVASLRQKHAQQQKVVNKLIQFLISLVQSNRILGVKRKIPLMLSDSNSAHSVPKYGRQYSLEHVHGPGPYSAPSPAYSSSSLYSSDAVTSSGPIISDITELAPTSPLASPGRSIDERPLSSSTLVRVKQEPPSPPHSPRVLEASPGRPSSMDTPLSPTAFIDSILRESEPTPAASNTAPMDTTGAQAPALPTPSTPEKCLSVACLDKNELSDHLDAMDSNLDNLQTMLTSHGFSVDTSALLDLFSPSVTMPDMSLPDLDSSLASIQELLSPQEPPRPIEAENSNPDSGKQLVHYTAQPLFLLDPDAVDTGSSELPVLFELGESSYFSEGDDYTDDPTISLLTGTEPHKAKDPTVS

[9] = biological target: Cytochrome P450 3A4 (Homo sapiens, UniProt P08684);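 note: CYP3A4 tested as one member of a cytochrome P450 panel screen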
Sequence of Cytochrome P450 3A4 (P08684 whole entry): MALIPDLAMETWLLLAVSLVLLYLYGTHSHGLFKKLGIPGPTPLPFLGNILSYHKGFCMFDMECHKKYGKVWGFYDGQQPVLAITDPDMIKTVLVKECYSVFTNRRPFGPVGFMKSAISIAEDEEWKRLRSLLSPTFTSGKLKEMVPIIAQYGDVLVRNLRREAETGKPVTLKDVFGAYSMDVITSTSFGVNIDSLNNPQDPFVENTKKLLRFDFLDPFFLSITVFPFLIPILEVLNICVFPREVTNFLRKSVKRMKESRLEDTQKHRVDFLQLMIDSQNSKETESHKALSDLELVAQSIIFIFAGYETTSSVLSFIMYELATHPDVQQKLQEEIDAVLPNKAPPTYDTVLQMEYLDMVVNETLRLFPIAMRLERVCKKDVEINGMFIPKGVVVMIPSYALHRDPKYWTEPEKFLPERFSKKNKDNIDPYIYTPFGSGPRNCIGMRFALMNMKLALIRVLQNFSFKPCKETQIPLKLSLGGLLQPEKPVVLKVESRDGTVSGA

[10] = biological target: Cytochrome P450 2C9 (Homo sapiens, UniProt P11712)
Sequence of Cytochrome P450 2C9 (P11712 whole entry): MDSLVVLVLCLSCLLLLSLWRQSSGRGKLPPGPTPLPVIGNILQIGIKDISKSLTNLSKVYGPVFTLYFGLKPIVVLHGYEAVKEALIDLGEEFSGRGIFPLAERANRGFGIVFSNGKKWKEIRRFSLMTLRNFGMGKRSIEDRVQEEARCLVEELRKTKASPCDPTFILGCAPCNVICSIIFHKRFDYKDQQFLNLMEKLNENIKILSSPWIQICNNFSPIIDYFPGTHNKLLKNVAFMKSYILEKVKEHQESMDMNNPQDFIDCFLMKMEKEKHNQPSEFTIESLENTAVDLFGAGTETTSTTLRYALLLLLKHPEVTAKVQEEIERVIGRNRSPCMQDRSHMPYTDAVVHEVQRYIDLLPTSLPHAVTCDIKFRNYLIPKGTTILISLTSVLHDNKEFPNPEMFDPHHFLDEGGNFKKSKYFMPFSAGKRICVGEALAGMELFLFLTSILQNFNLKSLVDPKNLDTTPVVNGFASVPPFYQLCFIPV

[11] = biological target: T2, Cytochrome P450 1A2 (Homo sapiens, UniProt P05177);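 note: PubChem cytochrome P450 panel assay, CYP1A2 panel member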
T2 sequence (P05177 whole entry): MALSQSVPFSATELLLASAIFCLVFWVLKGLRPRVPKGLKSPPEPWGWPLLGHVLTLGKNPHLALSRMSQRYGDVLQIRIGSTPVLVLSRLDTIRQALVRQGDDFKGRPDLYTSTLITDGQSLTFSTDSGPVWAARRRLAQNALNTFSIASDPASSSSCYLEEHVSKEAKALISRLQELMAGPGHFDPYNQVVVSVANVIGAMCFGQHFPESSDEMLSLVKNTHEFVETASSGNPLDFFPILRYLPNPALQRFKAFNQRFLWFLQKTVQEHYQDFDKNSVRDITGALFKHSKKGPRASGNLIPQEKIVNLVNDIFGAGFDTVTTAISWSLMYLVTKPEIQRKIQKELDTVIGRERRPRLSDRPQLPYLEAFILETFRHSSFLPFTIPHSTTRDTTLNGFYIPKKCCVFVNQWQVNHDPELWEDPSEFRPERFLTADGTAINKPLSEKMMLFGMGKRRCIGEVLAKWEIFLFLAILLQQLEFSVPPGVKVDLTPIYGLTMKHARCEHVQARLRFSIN

[12] = biological target: Cytochrome P450 2C19 (Homo sapiens, UniProt P33261); test: Cytochrome panel assay with activity outcomes. Panel member name: p450-cyp2c19 Compounds with AC50 equal or less than 10 uM are considered active; format: functional; details: read-out: AC50
Sequence of Cytochrome P450 2C19 (P33261 whole entry): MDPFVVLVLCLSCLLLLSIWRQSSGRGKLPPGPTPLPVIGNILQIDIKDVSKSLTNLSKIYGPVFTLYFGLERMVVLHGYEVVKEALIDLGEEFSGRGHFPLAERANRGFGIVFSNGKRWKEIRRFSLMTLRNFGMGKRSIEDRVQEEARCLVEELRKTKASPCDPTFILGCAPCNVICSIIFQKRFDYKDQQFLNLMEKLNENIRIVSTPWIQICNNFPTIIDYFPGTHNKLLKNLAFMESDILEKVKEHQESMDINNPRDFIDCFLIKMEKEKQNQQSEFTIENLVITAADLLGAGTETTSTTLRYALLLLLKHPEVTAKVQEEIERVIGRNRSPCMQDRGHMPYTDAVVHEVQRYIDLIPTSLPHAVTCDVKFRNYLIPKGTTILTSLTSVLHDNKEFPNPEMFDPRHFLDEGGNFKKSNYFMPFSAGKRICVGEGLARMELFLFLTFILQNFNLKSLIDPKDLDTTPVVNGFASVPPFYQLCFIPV

[13] = test system: Streptococcus sp. 'group A'; test: Streptococcus pyogenes SK(-)GAS viability under kanamycin – luminescence, BacTiterGlo, confirmation, counter-screen for streptokinase expression inhibitor project, dose response (AID 1900); format: functional, organism-based
[14] = biological target: T3, Streptokinase A (Streptococcus pyogenes serotype M1, UniProt P10520); test: viability-normalized secreted streptokinase activity reduction – plasminogen activation absorbance, OD405, dose response (AID 1914); format: functional, Streptococcus pyogenes M1 GAS;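 note: secreted streptokinase activity via plasminogen activation per viability signal from cell pellet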
T3 sequence (P10520 whole entry): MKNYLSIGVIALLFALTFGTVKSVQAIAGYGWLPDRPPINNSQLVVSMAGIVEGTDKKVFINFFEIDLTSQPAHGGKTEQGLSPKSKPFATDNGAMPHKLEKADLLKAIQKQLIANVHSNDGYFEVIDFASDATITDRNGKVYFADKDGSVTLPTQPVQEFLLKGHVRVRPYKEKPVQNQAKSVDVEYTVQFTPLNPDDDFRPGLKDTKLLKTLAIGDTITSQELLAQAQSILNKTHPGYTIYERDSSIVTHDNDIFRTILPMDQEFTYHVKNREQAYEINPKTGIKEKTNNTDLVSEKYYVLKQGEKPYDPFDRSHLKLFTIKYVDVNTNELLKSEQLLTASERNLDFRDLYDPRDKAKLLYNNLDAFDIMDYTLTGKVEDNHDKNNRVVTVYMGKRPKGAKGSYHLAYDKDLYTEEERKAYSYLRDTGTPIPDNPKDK

[15] = test system: Streptococcus; test: GAS UMAA2166 growth inhibition – luminescence, BacTiterGlo, counter-screen for streptokinase expression inhibitor project, dose response (AID 1915); format: functional, organism-based;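 note: potency for reduction of bacterial viability or growth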

O=C(Nc1nnc(-c2ccccc2F)s1)C1CCCO1 (configuration not stated)
EC50 [1]: 0.89 µM (active) | EC50 [2]: 0.223 µM (active)

C[C@H](O)C#Cc1cnc2c(c1)C(=O)N([C@H](C)CO)C[C@H](C)[C@H](CN(C)Cc1ccc(-c3ccccc3)cc1)O2
AC50 [3]: 5.05 µM (active)

CCN(CC)S(=O)(=O)c1cccc(-c2nnc(S)n2/N=C/c2ccc(OC)cc2)c1
EC50 [4]: > 120 µM (not active) | EC50 [5]: 34.8 µM (active) | EC50 [6]: 23.8 µM (active)

COc1ccnc(N=CNOCc2ccc(C)cc2)c1C#N
EC50 [1]: 12.5 µM (active) | EC50 [7]: 55.5 µM (active) | EC50 [2]: 14.7 µM (active)

Cc1cc(NC(=O)C2C3C(=O)N(Cc4ccc(Cl)cc4)C(C(=O)NC(C)(C)C)C34C=CC2(C)O4)no1 (configuration not stated)
EC50 [8]: > 195 µM (not active) | AC50 [9]: 25.1 µM (inconclusive)

COc1cccc(Cn2c(=O)c(-c3cccc(C#N)c3)nc3cnc(Nc4ccccc4)nc32)c1
AC50 [9]: 0.794 µM (inconclusive)

C=CCn1c2ccccc2c2nnc(S)nc21
EC50 [4]: > 120 µM (not active) | EC50 [5]: > 120 µM (not active) | EC50 [6]: 17.8 µM (active)

Nc1ccc(S(=O)(=O)c2ccc(NC(=O)c3cccnc3)cc2)cc1
AC50 [9]: 3.16 µM (inconclusive) | AC50 [10]: 6.31 µM (inconclusive)

O=c1c2c(n3cnnc3n1C1CCCCC1)-c1ccccc1CC21CCCCC1
EC50 [4]: > 120 µM (not active) | EC50 [5]: > 120 µM (not active) | EC50 [6]: > 120 µM (not active)

COc1ccc(-n2c(=O)c(-c3ccccc3)nc3cnc(N4CCOCC4)nc32)cc1
AC50 [11]: 15.8 µM (inconclusive)

C/C(CCN1CCCc2nc(C)c(C)cc21)=N\O[C@@H](C)c1cc(-c2c(C)cc(C)cc2C)no1
AC50 [9]: 5.01 µM (inconclusive)

CCc1ccc(N2C(=O)/C(=C/c3cccs3)N(CC(=O)OC)C2=S)cc1
AC50 [11]: 15.8 µM (inconclusive) | AC50 [9]: 12.6 µM (inconclusive) | AC50 [12]: 3.98 µM (inconclusive) | AC50 [10]: 12.6 µM (inconclusive)

CNS(=O)(=O)c1ccc(NC(=O)c2cnn3c(C(F)F)cc(-c4ccccc4)nc23)cc1
EC50 [4]: 31.8 µM (active) | EC50 [13]: 85.3 µM (active) | EC50 [5]: 12.1 µM (active) | EC50 [14]: > 150 µM (not active) | EC50 [6]: > 120 µM (not active) | EC50 [15]: > 150 µM (not active)

Oc1ccc(CNCc2ccccc2)c2cccnc12
AC50 [11]: 5.01 µM (inconclusive)

NC[C@](O)(CS(=O)(=O)O)c1ccc(Cl)cc1
AC50 [11]: 31.6 µM (inconclusive) | AC50 [9]: 1 µM (inconclusive)

NS(=O)(=O)c1ccc(NC2(C(=O)O)CCCC2)cc1
AC50 [11]: 0.794 µM (inconclusive)

CCOc1ccc(-c2nc(S(=O)(=O)c3ccccc3)c(NCc3cccnc3)o2)cc1
EC50 [4]: > 120 µM (not active) | EC50 [5]: > 120 µM (not active) | EC50 [6]: > 120 µM (not active)

COc1cccc(Nc2ncc3nc(-c4cc(F)cc(F)c4)c(=O)n(C4CC4)c3n2)c1
AC50 [11]: 6.31 µM (inconclusive)

CC(=O)n1c2c(c3ccccc31)OC(N)=C(C#N)C2c1ccc(C(C)C)cc1 (configuration not stated)
EC50 [1]: 10 µM (active) | EC50 [7]: 16.2 µM (active) | EC50 [2]: 11.7 µM (active)

CCCc1cc2c(=O)c(-c3ccc4c(c3)OCCO4)coc2cc1OS(C)(=O)=O
EC50 [1]: < 0.195 µM (inconclusive) | EC50 [7]: > 120 µM (not active) | EC50 [2]: 0.103 µM (active)

Cc1ccc(C)c(NC(=O)c2cc3ccccn3n2)c1
EC50 [1]: 0.163 µM (active) | EC50 [7]: 41.1 µM (active) | EC50 [2]: 0.765 µM (active)

CCCN(CCC)[C@@H]1CCc2c(OC)cccc2[C@@H]1C
AC50 [11]: 31.6 µM (inconclusive)

CCC(CC)C(=O)Nc1cccc(/C(C)=N\NC(=O)c2ccc(C)s2)c1
AC50 [11]: 3.16 µM (inconclusive) | AC50 [10]: 0.355 µM (inconclusive)

CN1CCN(CCc2ccc(Cl)c(Cl)c2)CC1
AC50 [11]: 25.1 µM (inconclusive)

COCCn1c(=O)c(-c2ccc(F)c(F)c2)nc2cncnc21
AC50 [9]: 12.6 µM (inconclusive)

Cc1ccc(S(=O)(=O)N(C)C[C@H]2OCCCC[C@@H](C)Oc3ccc(NS(=O)(=O)c4ccc(F)cc4)cc3C(=O)N([C@@H](C)CO)C[C@H]2C)cc1
AC50 [3]: 8.12 µM (active)

Cc1c(NC(=O)/C(C#N)=C/c2ccc(-c3ccccc3Cl)o2)c(=O)n(-c2ccccc2)n1C
EC50 [4]: > 120 µM (not active) | EC50 [5]: > 120 µM (not active) | EC50 [6]: 13.4 µM (active)

O=C(c1ccc(C[S+]([O-])Cc2ccccc2Cl)o1)N1CCN(C2CCCCC2)CC1 (configuration not stated)
EC50 [1]: > 120 µM (not active) | EC50 [7]: > 120 µM (not active) | EC50 [2]: > 120 µM (not active)

COC(=O)c1nn(-c2cccc(C(F)(F)F)c2)c(=O)cc1Sc1ccccn1
EC50 [8]: > 195 µM (not active) | AC50 [9]: 20 µM (inconclusive) | AC50 [10]: 3.98 µM (inconclusive)

COC(=O)[C@@]1(Cc2ccc(OC)cc2)[C@H]2c3cc(C(=O)N(C)C)n(CCN4CNCC4=O)c3C[C@H]2CN1C(=O)c1ccccc1
AC50 [11]: 20 µM (inconclusive) | AC50 [12]: 15.8 µM (inconclusive)

c1ccc2c3c([nH]c2c1)[C@@H]1[C@H]2CC[C@H]([C@H]4CCCN[C@H]42)N1CC3
AC50 [11]: 15.8 µM (inconclusive)

CC1(C)CC(=O)C(CCCN2C(=O)c3ccccc3C2=O)C(=O)C1
AC50 [11]: 28.2 µM (inconclusive) | AC50 [12]: 39.8 µM (inconclusive)

COc1ccc(NS(=O)(=O)c2cccc(N3CC(=O)C(c4ccccc4)=C3N)c2)cc1
EC50 [4]: > 120 µM (not active) | EC50 [5]: > 120 µM (not active) | EC50 [6]: > 120 µM (not active)

Cc1ccccc1-c1cc(C(=O)Nc2nc3c(s2)CCCC3)c2ccccc2n1
AC50 [11]: 3.55 µM (inconclusive)

O=c1c(-c2ccc(Cl)cc2)nc2cnc(Nc3ccccc3)nc2n1C[C@H]1CCCO1
AC50 [11]: 12.6 µM (inconclusive)

Cc1ccc(NC(=O)c2nc[nH]c2C(=O)N[C@@H](C)c2ccccc2)cc1
EC50 [4]: > 120 µM (not active) | EC50 [13]: 1.05 µM (active) | EC50 [5]: > 120 µM (not active) | EC50 [14]: > 150 µM (not active) | EC50 [6]: 17.3 µM (active) | EC50 [15]: 16.9 µM (active)

CCOC(=O)c1ncn2c1[C@H]1CCCN1C(=O)c1cc(OC)ccc1-2
AC50 [11]: 39.8 µM (inconclusive)

CCOCC(=O)Nc1c(C(=O)Nc2ccccc2OC)oc2ccccc12
AC50 [9]: 6.31 µM (inconclusive)
